Laboratory results from patent US10611750B2, “Tetrahydroquinoline compositions as bet bromodomain inhibitors” (FORMA Therapeutics, Inc., priority 2013, dated 2020).
Read-outs that look alike come from different tables or passages of the source.

Columns and labels:
[1] = molecular target: T1, BRD4 Bromodomain 1 (BRD4 BD1) (Homo sapiens, UniProt O60885); experiment: AlphaScreen binding assay, BRD4 BD1; conditions: His-tagged BRD4 BD1 50 nM, biotinylated H4 (1-21) K5/8/12/16 tetra-acetylated peptide 50 nM, compounds listed under IC50 range headings
T1 construct: 44-168 and BRD4 BD2
How it was run: (§1)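 Compound dilution series were mixed with His-tagged BRD4 bromodomain and biotinylated tetra-acetylated H4 (1-21) peptide at pH 7.3 (BD1 and peptide at 50 nM, BD2 and peptide at 100 nM). Donor and acceptor beads were then added, and plates were equilibrated at least 1 h before reading. IC50 values were fitted with a four-parameter logistic model.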

[2] = tested on: acute myelocytic leukemia (AML) cell line MV4-11; experiment: Oncology cell growth assay (3-day proliferation, CellTiter-Glo); assay type: cell-based; conditions: Homo sapiens, MV4-11 cells, 3000 cells/well, compounds listed under IC50 range headings, read-out: MV411 IC50 (gIC50, inhibition of proliferation)
How it was run: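 Luminescence from CellTiter-Glo served as the growth read-out after MV4-11 cells (3000/well) were cultured with compound for 72 hours. Final concentrations spanned 10 to 0.0045 μM in 3-fold steps. gIC50 values were derived by four-parameter logistic fitting relative to DMSO and cell-free controls.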

[3] = molecular target: T2, BRD4 Bromodomain 2 (BRD4 BD2) (Homo sapiens, UniProt O60885); experiment: AlphaScreen binding assay, BRD4 BD2; conditions: His-tagged BRD4 BD2 100 nM, biotinylated H4 (1-21) K5/8/12/16 tetra-acetylated peptide 100 nM, compounds listed under IC50 range headings
T2 construct: 333-460 were cloned, expressed, and purified to homogeneity
How it was run: as §1

SMILES	IC50 [1]	IC50 ([2]; 72 hours)	IC50 [3]	IC50 ([2]; MV4-11, 72 h)
CC(=O)N1c2ccc(-c3cnn(C4CC4)c3)c(O[C@H](F)C(N)=O)c2CC[C@@H]1C (single isomer, unassigned) [I-63]	1000 to 10000 nM	> 1000 nM	50 to 500 nM	
CC(=O)N1c2ccc(-c3cnn(C4CC4)c3)c(OC(F)C(N)=O)c2CC[C@@H]1C (single isomer, unassigned) [I-64]	≥ 10000 nM	> 1000 nM	≥ 500 nM	
CC=Cn1c(Oc2c(-c3cnn(C4CC4)c3)ccc3c2CC[C@H](C)N3C(C)=O)nc2ccccc21 (single isomer, unassigned) [I-352]	1000 to 10000 nM		50 to 500 nM	500 to 1000 nM
CCCOc1c(-c2cnn(CCO)c2)ccc2c1CC[C@H](C)N2C(C)=O [I-1, (S)-1-(6-(1-(2-hydroxyethyl)-1H-pyrazol-4-yl)-2-methyl-5-propoxy-3,4-dihydroquinolin-1 (2H)-yl)ethanone]	100 to 1000 nM	< 500 nM	50 to 500 nM	
CC(=O)N1c2ccc(-c3cnn(C4CC4)c3)c(OCC(=O)N3CCC3)c2CC[C@@H]1C [I-7, (S)-2-(1-acetyl-6-(1-cyclopropyl-1H-pyrazol-4-yl)-2-methyl-1,2,3,4-tetrahydroquinolin-5-yloxy)-1-(azetidin-1-yl)ethanone]	100 to 1000 nM		50 to 500 nM	< 500 nM
CC(=O)N1c2ccc(-c3cnn(CCO)c3)c(OC[C@H]3CCNC3)c2CC[C@@H]1C [I-440]	1000 to 10000 nM		50 to 500 nM	
CCCOc1c(-c2cnn(CCS(C)(=O)=O)c2)ccc2c1CC[C@H](C)N2C(=O)OC [I-441]	1000 to 10000 nM		50 to 500 nM	
COC(=O)N1c2ccc(-c3cnn(CCS(C)(=O)=O)c3)c(OCC3CCOCC3)c2CC[C@@H]1C [I-448]	1000 to 10000 nM		50 to 500 nM	
COC(=O)N1c2ccc(-c3cnn(CCO)c3)c(OCC3CCOCC3)c2CC[C@@H]1C [I-450]	1000 to 10000 nM		50 to 500 nM	
COC(=O)N1c2ccc(-c3cnn(C4CCNCC4)c3)c(OCC3CCOCC3)c2CC[C@@H]1C [I-451]	1000 to 10000 nM		50 to 500 nM	
COC(=O)N1c2ccc(-c3cnn(CCS(C)(=O)=O)c3)c(OCC(=O)N(C)C)c2CC[C@@H]1C [I-452]	1000 to 10000 nM		50 to 500 nM	
COC(=O)N1c2ccc(-c3cnn(CC(C)(C)O)c3)c(OCC(=O)N(C)C)c2CC[C@@H]1C [I-453]	1000 to 10000 nM		50 to 500 nM	
COC(=O)N1c2ccc(-c3cnn(C4CCNCC4)c3)c(OCC(=O)N(C)C)c2CC[C@@H]1C [I-454]	1000 to 10000 nM		50 to 500 nM	
COC(=O)N1c2ccc(-c3cnn(CCS(C)(=O)=O)c3)c(OCC(C)C)c2CC[C@@H]1C [I-455]	1000 to 10000 nM		50 to 500 nM	
COC(=O)N1c2ccc(-c3cnn(CC(C)(C)O)c3)c(OCC(C)C)c2CC[C@@H]1C [I-456]	1000 to 10000 nM		50 to 500 nM	
COC(=O)N1c2ccc(-c3cnn(CCO)c3)c(OCC(C)C)c2CC[C@@H]1C [I-457]	1000 to 10000 nM		50 to 500 nM	
COC(=O)N1c2ccc(-c3cnn(CC(C)(C)O)c3)c(OCC3CCCC3)c2CC[C@@H]1C [I-460]	1000 to 10000 nM		50 to 500 nM	
COC(=O)N1c2ccc(-c3cnn(CCS(C)(=O)=O)c3)c(OCC(=O)N3CCCC3)c2CC[C@@H]1C [I-463]	1000 to 10000 nM		50 to 500 nM	
COC(=O)N1c2ccc(-c3cnn(CC(C)(C)O)c3)c(OCC(=O)N3CCCC3)c2CC[C@@H]1C [I-464]	1000 to 10000 nM		50 to 500 nM	

SMILES	IC50 [1]	IC50 ([2]; 72 hours)	IC50 [3]	IC50 ([2]; MV4-11, 72 h)
COC(=O)N1c2ccc(-c3cnn(CCO)c3)c(OCC(=O)N3CCCC3)c2CC[C@@H]1C [I-465]	1000 to 10000 nM		50 to 500 nM	
COC(=O)N1c2ccc(-c3cnn(CCS(C)(=O)=O)c3)c(OC[C@H]3CCC(=O)N3)c2CC[C@@H]1C [I-467]	1000 to 10000 nM		50 to 500 nM	
COC(=O)N1c2ccc(-c3cnn(CC(C)(C)O)c3)c(OC[C@H]3CCC(=O)N3)c2CC[C@@H]1C [I-468]	1000 to 10000 nM		50 to 500 nM	
COC(=O)N1c2ccc(-c3cnn(CCO)c3)c(OC[C@H]3CCC(=O)N3)c2CC[C@@H]1C [I-469]	1000 to 10000 nM		50 to 500 nM	
COC(=O)N1c2ccc(-c3cnn(C4CCNCC4)c3)c(OC[C@H]3CCC(=O)N3)c2CC[C@@H]1C [I-470]	1000 to 10000 nM		50 to 500 nM	
COC(=O)N1c2ccc(-c3cnn(CCS(C)(=O)=O)c3)c(OCCN(C)S(C)(=O)=O)c2CC[C@@H]1C [I-471]	1000 to 10000 nM		50 to 500 nM	
COC(=O)N1c2ccc(-c3cnn(CC(C)(C)O)c3)c(OCCN(C)S(C)(=O)=O)c2CC[C@@H]1C [I-472]	1000 to 10000 nM		50 to 500 nM	
COC(=O)N1c2ccc(-c3cnn(CCO)c3)c(OCCN(C)S(C)(=O)=O)c2CC[C@@H]1C [I-473]	1000 to 10000 nM		50 to 500 nM	
COC(=O)N1c2ccc(-c3cnn(C4CCNCC4)c3)c(OCCN(C)S(C)(=O)=O)c2CC[C@@H]1C [I-474]	1000 to 10000 nM		50 to 500 nM	
COC(=O)N1c2ccc(-c3cnn(CCS(C)(=O)=O)c3)c(OC[C@H]3CCNC3)c2CC[C@@H]1C [I-475]	1000 to 10000 nM		50 to 500 nM	
COC(=O)N1c2ccc(-c3cnn(C4CCNCC4)c3)c(OC[C@H]3CCNC3)c2CC[C@@H]1C [I-477]	1000 to 10000 nM		50 to 500 nM	
CC(=O)N1c2ccc(-c3cnn(C4CC4)c3)c(OCc3ncc(C)o3)c2CC[C@@H]1C [I-478]	1000 to 10000 nM		50 to 500 nM	
CC(=O)N1c2ccc(-c3cnn(C4CC4)c3)c(OCc3nc4ccccc4o3)c2CC[C@@H]1C [I-481]	≥ 10000 nM		≥ 500 nM	
CCCOc1c(-c2ccc(S(C)(=O)=O)cc2)ccc2c1CC[C@H](C)N2C(C)=O [I-482]	1000 to 10000 nM		≥ 500 nM	
CC(=O)N1c2ccc(-c3ccc(S(C)(=O)=O)cc3)c(OCC(=O)N(C)C)c2CC[C@@H]1C [I-483]	1000 to 10000 nM		≥ 500 nM	
CCCOc1c(-c2ccc(S(=O)(=O)CC)cc2)ccc2c1CC[C@H](C)N2C(C)=O [I-484]	1000 to 10000 nM		50 to 500 nM	
CCS(=O)(=O)c1ccc(-c2ccc3c(c2OCC(=O)N(C)C)CC[C@H](C)N3C(C)=O)cc1 [I-485]	1000 to 10000 nM		≥ 500 nM	
CCCOc1c(-c2cccc(C(=O)N3CCOCC3)c2)ccc2c1CC[C@H](C)N2C(C)=O [I-488]	1000 to 10000 nM		50 to 500 nM	
CC(=O)N1c2ccc(-c3cccc(C(=O)N4CCOCC4)c3)c(OCC(=O)N(C)C)c2CC[C@@H]1C [I-489]	≥ 10000 nM		≥ 500 nM	

SMILES	IC50 [1]	IC50 ([2]; 72 hours)	IC50 [3]	IC50 ([2]; MV4-11, 72 h)
CCCOc1c(-c2cccc(NS(C)(=O)=O)c2)ccc2c1CC[C@H](C)N2C(C)=O [I-490]	1000 to 10000 nM		50 to 500 nM	
CCCOc1c(-c2cccc(S(C)(=O)=O)c2)ccc2c1CC[C@H](C)N2C(C)=O [I-492]	1000 to 10000 nM		50 to 500 nM	
CC(=O)N1c2ccc(-c3cccc(S(C)(=O)=O)c3)c(OCC(=O)N(C)C)c2CC[C@@H]1C [I-493]	1000 to 10000 nM		≥ 500 nM	
CCCOc1c(-c2ccc(NS(C)(=O)=O)cc2)ccc2c1CC[C@H](C)N2C(C)=O [I-494]	1000 to 10000 nM		50 to 500 nM	
CC(=O)N1c2ccc(-c3ccc(NS(C)(=O)=O)cc3)c(OCC(=O)N(C)C)c2CC[C@@H]1C [I-495]	1000 to 10000 nM		≥ 500 nM	
CCCOc1c(-c2ccc(C(=O)N3CCOCC3)cc2)ccc2c1CC[C@H](C)N2C(C)=O [I-496]	1000 to 10000 nM		50 to 500 nM	
CC(=O)N1c2ccc(-c3ccc(C(=O)N4CCOCC4)cc3)c(OCC(=O)N(C)C)c2CC[C@@H]1C [I-497]	1000 to 10000 nM		50 to 500 nM	
CCCOc1c(-c2ccc(N3CCCS3(=O)=O)cc2)ccc2c1CC[C@H](C)N2C(C)=O [I-498]	1000 to 10000 nM		50 to 500 nM	
CC(=O)N1c2ccc(-c3ccc(N4CCCS4(=O)=O)cc3)c(OCC(=O)N(C)C)c2CC[C@@H]1C [I-499]	1000 to 10000 nM		50 to 500 nM	
CCCOc1c(-c2ccc3c(c2)CCN3S(C)(=O)=O)ccc2c1CC[C@H](C)N2C(C)=O [I-500]	1000 to 10000 nM		50 to 500 nM	
CCCOc1c(-c2ccc(N(C)S(C)(=O)=O)cc2)ccc2c1CC[C@H](C)N2C(C)=O [I-502]	1000 to 10000 nM		50 to 500 nM	
CC(=O)N1c2ccc(-c3ccc(N(C)S(C)(=O)=O)cc3)c(OCC(=O)N(C)C)c2CC[C@@H]1C [I-503]	1000 to 10000 nM		50 to 500 nM	
CC(=O)N1c2ccc(-c3cnn(CCO)c3)c(Oc3nc(C)cc(C)n3)c2CC[C@@H]1C [I-544]	1000 to 10000 nM		50 to 500 nM	
CC(=O)N1c2ccc(-c3cnn(C4COC4)c3)c(OC[C@H]3CCNC3)c2CC[C@@H]1C [I-601]	1000 to 10000 nM		50 to 500 nM	
CC(=O)N1c2ccc(-c3cnn(CC(C)(C)O)c3)c(OC[C@H]3CCNC3)c2CC[C@@H]1C [I-604]	1000 to 10000 nM		≥ 500 nM	
CCCOc1cccc2c1CC[C@H](C)N2C(C)=O [I-605]	≥ 10000 nM		≥ 500 nM	
CC(=O)N1c2cccc(OCC(=O)N(C)C)c2CC[C@@H]1C [I-606]	≥ 10000 nM		≥ 500 nM	
CC(=O)N1c2cccc(OCC3CCCC3)c2CC[C@@H]1C [I-607]	≥ 10000 nM		≥ 500 nM	
